In patent US20170105986A1, “Topical Formulation to Enhance Genital Sensation and Function” (priority 2014, published 2017):

Tested on: genital area of the patient
Assay: Short term effect of the topical formulation applied to the genital area, as reported by users
Type: in vivo, human
Details: for somewhat improved sexual function continuing after use: middle-aged male, component of the formula; for functionality as component of the topical formulation: forms of coQ10 added to the formulation
Description: The following examples are used to show the short term effect of the topical formulation when applied to the genital area of the patient.

With `Nc1ncnc2c1ncn2[C@@H]1O[C@H](COP(=O)(O)OP(=O)(O)OP(=O)(O)O)[C@@H](O)[C@H]1O` [ATP, adenosine triphosphate] the “period for which the effects of the topical formulation are prolonged following administration” value (ATP included in second core composition) was roughly 12 h and the “somewhat improved sexual function continuing after use” value was “about 10 hours”.
`NC(=O)c1ccc[n+]([C@@H]2O[C@H](CO)[C@@H](O)[C@H]2O)c1` [nicotinamide ribose, nicotinamide riboside] was tested, and the “somewhat improved sexual function continuing after use” value was “about 10 hours”.
With `COc1c(O)c(C)c(C/C=C(\C)CC/C=C(\C)CC/C=C(\C)CC/C=C(\C)CC/C=C(\C)CC/C=C(\C)CC/C=C(\C)CC/C=C(\C)CC/C=C(\C)CCC=C(C)C)c(O)c1OC` [ubiquinol, reference compound] the “functionality as component of the topical formulation” value was “seems not functional”.
In the case of `COC1=C(OC)C(=O)C(C/C=C(\C)CC/C=C(\C)CC/C=C(\C)CC/C=C(\C)CC/C=C(\C)CC/C=C(\C)CC/C=C(\C)CC/C=C(\C)CC/C=C(\C)CCC=C(C)C)=C(C)C1=O` [ubiquinone, reference compound], the “functionality as component of the topical formulation” value is reported as “seems not functional”.
